Source: patent US8889704B2 (Array BioPharma Inc., priority 2011, dated 2014)
pIC50: −log10 of the molar value. Structures can show the parent of a compound that is named as a salt.

What was measured:
Format in all cases: biochemical
PIM-1 = PIM-1 (Homo sapiens, UniProt P11309); assay: Enzyme PIM-1 Assay ([33P]ATP incorporation into PIM2tide, filter plate); settings: averaged IC50; 35 μM ATP, 7.5 μM PIM2tide, 0.25 nM PIM-1, 60 min at 22° C.
How it was run: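 Ten-point, 3-fold dilution series (10 μM top, 2% DMSO final) tested for inhibition of 33P transfer from 35 μM ATP to 7.5 μM PIM2tide by 0.25 nM PIM-1. Reaction 60 min, 22 °C, pH 7.4 MOPS/MgCl2 buffer; phosphocellulose capture, scintillation counting, IC50 where fitted POC equals 50.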

[1] = biological target: T1, GST-tagged recombinant full-length human Pim-2 (Homo sapiens, UniProt Q9P1W9); assay: PIM-2 Assay (as Example A); settings: averaged IC50; 4 μM ATP, 1.0 μM PIM2tide, 1.5 nM Pim-2
T1 construct: GST-tagged recombinant full-length human Pim-2; GST
How it was run: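 IC50 was derived by 4-parameter logistic fitting of percent-of-control data over a 10-point, 3-fold series (highest 10 μM, 2% DMSO). Reactions held 1.5 nM GST-Pim-2 (full-length, human), 4 μM [γ-33P]ATP and 1.0 μM PIM2tide for 60 min at 22 °C, pH 7.4; 33P-peptide captured on P81 filters.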

recombinant rat PIM-3 = recombinant rat PIM-3 (Rattus norvegicus, UniProt O70444); assay: PIM-3 Assay (as Example A); settings: averaged IC50; 30 μM ATP, 3.75 μM PIM2tide, 0.5 nM PIM-3
How it was run: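 33P incorporation from 30 μM [γ-33P]ATP into 3.75 μM PIM2tide by 0.5 nM rat PIM-3, 60 min at 22 °C in pH 7.4 MOPS buffer, read by P81 filter capture and scintillation counting. Compounds tested in 3-fold dilutions up to 10 μM final, 2% DMSO; percent-of-control data fitted by 4-parameter logistic for IC50.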

Chain of PIM-1 (P11309 whole entry, species assumed): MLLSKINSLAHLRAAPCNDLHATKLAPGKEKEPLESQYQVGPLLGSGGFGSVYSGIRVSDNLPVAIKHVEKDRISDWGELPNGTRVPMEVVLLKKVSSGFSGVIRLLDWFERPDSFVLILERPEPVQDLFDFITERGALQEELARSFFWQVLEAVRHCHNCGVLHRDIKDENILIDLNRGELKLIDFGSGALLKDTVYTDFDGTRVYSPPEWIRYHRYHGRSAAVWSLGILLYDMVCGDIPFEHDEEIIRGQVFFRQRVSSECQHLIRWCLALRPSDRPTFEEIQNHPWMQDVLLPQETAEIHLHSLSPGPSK
T1 sequence (Q9P1W9 whole entry): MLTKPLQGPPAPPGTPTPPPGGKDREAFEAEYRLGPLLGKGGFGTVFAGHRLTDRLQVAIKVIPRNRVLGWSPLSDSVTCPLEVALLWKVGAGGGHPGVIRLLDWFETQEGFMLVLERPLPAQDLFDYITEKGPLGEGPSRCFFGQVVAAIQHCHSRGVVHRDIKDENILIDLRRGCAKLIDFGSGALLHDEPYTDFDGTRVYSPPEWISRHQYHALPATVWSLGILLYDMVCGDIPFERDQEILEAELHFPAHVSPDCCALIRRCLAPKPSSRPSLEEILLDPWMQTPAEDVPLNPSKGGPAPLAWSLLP

Row | pIC50 (PIM-1) | pIC50 [1] | pIC50 (recombinant rat PIM-3) | Compound
1 | 8.42 | < 7.00 | 8.18 | COCC1(c2cc3nc(-c4nnc5ccc([C@@H](N6CC[C@H](N)C6)C(F)(F)F)cn45)ccc3cc2F)CC1 [Example 165, (S)-1-((R)-2,2,2-trifluoro-1-(3-(6-fluoro-7-(1-(methoxymethyl)cyclopropyl)quinolin-2-yl)-[1,2,4]triazolo[4,3-a]pyridin-6-yl)ethyl)pyrrolidin-3-amine dihydrochloride]
2 | 8.88 | < 7.00 | 8.05 | COCCc1ccc2ccc(-c3nnc4ccc([C@@H](N5CC[C@H](N)C5)C(F)(F)F)cn34)nc2c1F [Example 166, (S)-1-((R)-2,2,2-trifluoro-1-(3-(8-fluoro-7-(2-methoxyethyl)quinolin-2-yl)-[1,2,4]triazolo[4,3-a]pyridin-6-yl)ethyl)pyrrolidin-3-amine dihydrochloride]
3 | 8.69 | < 7.00 | 7.92 | COc1ccc2ccc(-c3nnc4ccc([C@@H](N5CC[C@H](N)C5)C(F)(F)F)cn34)nc2c1F [Example 167, (S)-1-((R)-2,2,2-trifluoro-1-(3-(8-fluoro-7-methoxyquinolin-2-yl)-[1,2,4]triazolo[4,3-a]pyridin-6-yl)ethyl)pyrrolidin-3-amine dihydrochloride]
4 | 8.76 | < 7.00 | 7.82 | N[C@H]1CCN([C@H](c2ccc3nnc(-c4ccc5cccc(F)c5n4)n3c2)C(F)(F)F)C1 [Example 168, (S)-1-((R)-2,2,2-trifluoro-1-(3-(8-fluoroquinolin-2-yl)-[1,2,4]triazolo[4,3-a]pyridin-6-yl)ethyl)pyrrolidin-3-amine dihydrochloride]
5 | 9.54 | < 7.00 | 9.30 | Cn1cc(-c2ccc3ccc(-c4nnc5ccc([C@@H](N6CC[C@H](N)C6)C(F)(F)F)cn45)nc3c2F)cn1 [Example 171, (S)-1-((R)-2,2,2-trifluoro-1-(3-(8-fluoro-7-(1-methyl-1H-pyrazol-4-yl)quinolin-2-yl)-[1,2,4]triazolo[4,3-a]pyridin-6-yl)ethyl)pyrrolidin-3-amine tri-hydrochloride]
6 | 8.65 | < 7.00 | 8.00 | N[C@H]1CCN([C@H](c2ccc3nnc(-c4ccc5ccc(C6CC6)c(F)c5n4)n3c2)C(F)(F)F)C1 [Example 172, (S)-1-((R)-1-(3-(7-cyclopropyl-8-fluoroquinolin-2-yl)-[1,2,4]triazolo[4,3-a]pyridin-6-yl)-2,2,2-trifluoroethyl)pyrrolidin-3-amine dihydrochloride]
7 | 9.89 | < 7.00 | 9.40 | Cn1cc(-c2cc3nc(-c4nnc5ccc([C@@H](N6CC[C@H](N)C6)C(F)(F)F)cn45)ccc3cc2F)cn1 [Example 173, (S)-1-((R)-2,2,2-trifluoro-1-(3-(6-fluoro-7-(1-methyl-1H-pyrazol-4-yl)quinolin-2-yl)-[1,2,4]triazolo[4,3-a]pyridin-6-yl)ethyl)pyrrolidin-3-amine tri-hydrochloride]
8 | 8.96 | < 7.00 | 9.10 | COCCOc1ccc2ccc(-c3nnc4ccc([C@@H](N5CC[C@H](N)C5)C(F)(F)F)cn34)nc2c1Cl [Example 174, (S)-1-((R)-1-(3-(8-chloro-7-(2-methoxyethoxy)quinolin-2-yl)-[1,2,4]triazolo[4,3-a]pyridin-6-yl)-2,2,2-trifluoroethyl)pyrrolidin-3-amine hydrochloride]
9 | 9.15 | < 7.00 | 8.85 | COc1ccc2ccc(-c3nnc4ccc([C@@H](N5CC[C@H](N)C5)C(F)(F)F)cn34)nc2c1Cl [Example 175, (S)-1-((R)-1-(3-(8-chloro-7-methoxyquinolin-2-yl)-[1,2,4]triazolo[4,3-a]pyridin-6-yl)-2,2,2-trifluoroethyl)pyrrolidin-3-amine hydrochloride]
10 | 9.77 | 7.04 | 8.57 | N[C@H]1CCN([C@H](c2ccc3nnc(-c4ccc5cc(F)c(C6CC6)cc5n4)n3c2)C(F)(F)F)C1 [Example 176, (S)-1-((R)-1-(3-(7-cyclopropyl-6-fluoroquinolin-2-yl)-[1,2,4]triazolo[4,3-a]pyridin-6-yl)-2,2,2-trifluoroethyl)pyrrolidin-3-amine dihydrochloride]
11 | 9.51 | < 7.00 | 8.77 | N[C@H]1CCN([C@H](c2ccc3nnc(-c4ccc5cc(F)cc(C6CC6)c5n4)n3c2)C(F)(F)F)C1 [Example 177, (S)-1-((R)-1-(3-(8-cyclopropyl-6-fluoroquinolin-2-yl)-[1,2,4]triazolo[4,3-a]pyridin-6-yl)-2,2,2-trifluoroethyl)pyrrolidin-3-amine dihydrochloride]
12 | 8.74 | < 7.00 | 7.72 | COc1c(F)cc2ccc(-c3nnc4ccc([C@@H](N5CC[C@H](N)C5)C(F)(F)F)cn34)nc2c1F [Example 178, (S)-1-((R)-1-(3-(6,8-difluoro-7-methoxyquinolin-2-yl)-[1,2,4]triazolo[4,3-a]pyridin-6-yl)-2,2,2-trifluoroethyl)pyrrolidin-3-amine dihydrochloride]
13 | 8.61 | < 7.00 | 8.39 | COCCOc1ccc2ccc(-c3nnc4ccc([C@@H](N5CC[C@H](N)C5)C(F)(F)F)cn34)nc2c1F [Example 179, (S)-1-((R)-2,2,2-trifluoro-1-(3-(8-fluoro-7-(2-methoxyethoxy)quinolin-2-yl)-[1,2,4]triazolo[4,3-a]pyridin-6-yl)ethyl)pyrrolidin-3-amine dihydrochloride]
14 | 8.51 | < 7.00 | 7.89 | COC[C@@H](C)Oc1ccc2ccc(-c3nnc4ccc([C@@H](N5CC[C@H](N)C5)C(F)(F)F)cn34)nc2c1F [Example 180, (S)-1-((R)-2,2,2-trifluoro-1-(3-(8-fluoro-7-((R)-1-methoxypropan-2-yloxy)quinolin-2-yl)-[1,2,4]triazolo[4,3-a]pyridin-6-yl)ethyl)pyrrolidin-3-amine dihydrochloride]
15 | 9.39 | 7.02 | 8.57 | N[C@@H]1CN([C@H](c2ccc3nnc(-c4ccc5cc(F)cc(C6CC6)c5n4)n3c2)C(F)(F)F)C[C@H]1O [Example 181, (3R,4R)-4-amino-1-((R)-1-(3-(8-cyclopropyl-6-fluoroquinolin-2-yl)-[1,2,4]triazolo[4,3-a]pyridin-6-yl)-2,2,2-trifluoroethyl)pyrrolidin-3-ol dihydrochloride]
16 | 9.12 | < 7.00 | 8.39 | N[C@H]1CCN([C@H](c2ccc3nnc(-c4ccc5cccc(Cl)c5n4)n3c2)C(F)(F)F)C1 [Example 182, (S)-1-((R)-2,2,2-trifluoro-1-(3-(8-chloroquinolin-2-yl)-[1,2,4]triazolo[4,3-a]pyridin-6-yl)ethyl)pyrrolidin-3-amine dihydrochloride]
17 | 9.57 | < 7.00 | 8.92 | Cc1cccc2ccc(-c3nnc4ccc([C@@H](N5CC[C@H](N)C5)C(F)(F)F)cn34)nc12 [Example 183, (S)-1-((R)-2,2,2-trifluoro-1-(3-(8-methylquinolin-2-yl)-[1,2,4]triazolo[4,3-a]pyridin-6-yl)ethyl)pyrrolidin-3-amine dihydrochloride]
18 | 9.39 | < 7.00 | 8.82 | Cc1cc(F)cc2ccc(-c3nnc4ccc([C@@H](N5CC[C@H](N)C5)C(F)(F)F)cn34)nc12 [Example 184, (S)-1-((R)-2,2,2-trifluoro-1-(3-(6-fluoro-8-methylquinolin-2-yl)-[1,2,4]triazolo[4,3-a]pyridin-6-yl)ethyl)pyrrolidin-3-amine dihydrochloride]
19 | 9.43 | < 7.00 | 9.00 | COCc1cccc2ccc(-c3nnc4ccc([C@@H](N5CC[C@H](N)C5)C(F)(F)F)cn34)nc12 [Example 185, (S)-1-((R)-2,2,2-trifluoro-1-(3-(8-(methoxymethyl)quinolin-2-yl)-[1,2,4]triazolo[4,3-a]pyridin-6-yl)ethyl)pyrrolidin-3-amine dihydrochloride]
20 | 9.80 | 7.17 | 9.40 | C[C@H](CO)Oc1cccc2ccc(-c3nnc4ccc([C@@H](N5CC[C@H](N)C5)C(F)(F)F)cn34)nc12 [Example 186, (R)-2-(2-(6-((R)-1-((S)-3-aminopyrrolidin-1-yl)-2,2,2-trifluoroethyl)-[1,2,4]triazolo[4,3-a]pyridin-3-yl)quinolin-8-yloxy)propan-1-ol dihydrochloride]
21 | 9.43 | < 7.00 | 9.05 | C[C@H](O)COc1cccc2ccc(-c3nnc4ccc([C@@H](N5CC[C@H](N)C5)C(F)(F)F)cn34)nc12 [Example 187, (S)-1-(2-(6-((R)-1-((S)-3-aminopyrrolidin-1-yl)-2,2,2-trifluoroethyl)-[1,2,4]triazolo[4,3-a]pyridin-3-yl)quinolin-8-yloxy)propan-2-ol dihydrochloride]
